Key:
Conditions in all cases: incubation time: 72 h
HCC1143 = experiment: drug sensitivity score (DSS), CellTiter-Glo (DSS (AUC-based score)); higher = stronger drug effect (viability inhibition or cytotoxicity); extreme values may be limits of the assay
Method in brief: (§1)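 For 72 h, breast cancer cell lines seeded at 20 µl suspension per well in 384-well plates were incubated with compound at 5 concentrations in 10-fold steps spanning a 10,000-fold range that differed by compound. The first reading was CellTox Green fluorescence at 485/520 nm, and the second was CellTiter-Glo luminescence after 10 min at room temperature. Both were normalised per plate to 0.1 % DMSO and a positive kill control, and the drug sensitivity score was obtained from the area under the fitted dose-response curve.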

HCC1937 = experiment: as above
Method in brief: as §1

CAL-120 [1] = experiment: as above
Method in brief: as §1

BT-474 [2] = experiment: as above
Method in brief: as §1

MCF-10A = experiment: as above
Method in brief: as §1

Hs578T [3] = experiment: as above
Method in brief: as §1

CAL-51 [4] = experiment: as above
Method in brief: as §1

CAL-148 [5] = experiment: as above
Method in brief: as §1

CAL-85-1 [6] = experiment: as above
Method in brief: as §1

MFM-223 [7] = experiment: as above
Method in brief: as §1

MDA-MB-468 = experiment: normalised viability (% of control), CellTiter-Blue; higher = more viable cells (about 100 = DMSO control)
Method in brief: (§2)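 Breast cancer cell lines were treated for 72 h in 384-well format and measured by CellTiter-Blue fluorescence at 560/590 nm. Results were normalised per plate to vehicle (100) and a positive kill control (0). The entry is normalised viability at a single listed concentration of the series.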

BT-549 = experiment: as above
Method in brief: as §2

CAL-120 [8] = experiment: as above
Method in brief: as §2

BT-474 [9] = experiment: as above
Method in brief: as §2

DU-4475 = experiment: as above
Method in brief: as §2

MDA-MB-231 = experiment: as above
Method in brief: as §2

MDA-MB-453 = experiment: as above
Method in brief: as §2

MDA-MB-436 = experiment: as above
Method in brief: as §2

Hs578T [10] = experiment: as above
Method in brief: as §2

HDQ-P1 = experiment: as above
Method in brief: as §2

CAL-51 [11] = experiment: as above
Method in brief: as §2

CAL-148 [12] = experiment: as above
Method in brief: as §2

CAL-85-1 [13] = experiment: as above
Method in brief: as §2

MFM-223 [14] = experiment: as above
Method in brief: as §2

Structure (SMILES): CC(C)C[C@H](NC(=O)[C@H](Cc1ccccc1)NC(=O)c1cnccn1)B(O)O [Bortezomib]
- drug sensitivity score (HCC1143): 19.3
- drug sensitivity score (HCC1937): 12.9
- drug sensitivity score (CAL-120 [1]): 19.9
- drug sensitivity score (BT-474 [2]): 24.4
- drug sensitivity score (MCF-10A): 9.83
- drug sensitivity score (Hs578T [3]): 22.8
- drug sensitivity score (CAL-51 [4]): 18.3
- drug sensitivity score (CAL-148 [5]): 14.4
- drug sensitivity score (CAL-85-1 [6]): 28.4
- drug sensitivity score (MFM-223 [7]): 27.1
- normalised viability (MDA-MB-468; 1 nM): 88.3%
- normalised viability (MDA-MB-468; 100 nM): 3.55%
- normalised viability (MDA-MB-468; 1000 nM): 2.21%
- normalised viability (BT-549; 1 nM): 99.8%
- normalised viability (BT-549; 100 nM): 6.67%
- normalised viability (BT-549; 1000 nM): 3.15%
- normalised viability (CAL-120 [8]; 1 nM): 95.8%
- normalised viability (CAL-120 [8]; 100 nM): 4.31%
- normalised viability (CAL-120 [8]; 1000 nM): 3.21%
- normalised viability (BT-474 [9]; 1 nM): 101%
- normalised viability (BT-474 [9]; 100 nM): 36.6%
- normalised viability (BT-474 [9]; 1000 nM): 22.4%
- normalised viability (DU-4475; 0.3 nM): 113%
- normalised viability (DU-4475; 3 nM): 93.4%
- normalised viability (DU-4475; 10 nM): 98.8%
- normalised viability (MDA-MB-231; 1 nM): 92.4%
- normalised viability (MDA-MB-231; 100 nM): 2.05%
- normalised viability (MDA-MB-231; 1000 nM): 0.27%
- normalised viability (MDA-MB-453; 0.3 nM): 106%
- normalised viability (MDA-MB-453; 3 nM): 112%
- normalised viability (MDA-MB-453; 10 nM): 20.9%
- normalised viability (MDA-MB-436; 1 nM): 101%
- normalised viability (MDA-MB-436; 100 nM): 12.2%
- normalised viability (MDA-MB-436; 1000 nM): 9.29%
- normalised viability (Hs578T [10]; 1 nM): 91.1%
- normalised viability (Hs578T [10]; 100 nM): 2.89%
- normalised viability (Hs578T [10]; 1000 nM): 0.76%
- normalised viability (HDQ-P1; 0.3 nM): 79.4%
- normalised viability (HDQ-P1; 3 nM): 87.9%
- normalised viability (HDQ-P1; 10 nM): 10.2%
- normalised viability (CAL-51 [11]; 0.3 nM): 101%
- normalised viability (CAL-51 [11]; 3 nM): 97.9%
- normalised viability (CAL-51 [11]; 10 nM): 97.7%
- normalised viability (CAL-148 [12]; 0.3 nM): 99.6%
- normalised viability (CAL-148 [12]; 3 nM): 89%
- normalised viability (CAL-148 [12]; 10 nM): 94.4%
- normalised viability (CAL-85-1 [13]; 0.3 nM): 104%
- normalised viability (CAL-85-1 [13]; 3 nM): 92.1%
- normalised viability (CAL-85-1 [13]; 10 nM): 36.5%
- normalised viability (MFM-223 [14]; 1 nM): 104%
- normalised viability (MFM-223 [14]; 100 nM): 16.9%
- normalised viability (MFM-223 [14]; 1000 nM): 15.3%

Structure (SMILES): O=P(O)(NCCCl)NCCCl [Ifosfamide mustard]
- normalised viability (MDA-MB-468; 10 nM): 98.5%
- normalised viability (MDA-MB-468; 1000 nM): 93.9%
- normalised viability (MDA-MB-468; 10000 nM): 86.9%
- normalised viability (BT-549; 10 nM): 87.2%
- normalised viability (BT-549; 1000 nM): 91%
- normalised viability (BT-549; 10000 nM): 107%
- normalised viability (CAL-120 [8]; 10 nM): 80.5%
- normalised viability (CAL-120 [8]; 1000 nM): 85.6%
- normalised viability (CAL-120 [8]; 10000 nM): 89.5%
- normalised viability (BT-474 [9]; 10 nM): 128%
- normalised viability (BT-474 [9]; 1000 nM): 117%
- normalised viability (BT-474 [9]; 10000 nM): 119%
- normalised viability (DU-4475; 3 nM): 92.4%
- normalised viability (DU-4475; 30 nM): 99.6%
- normalised viability (DU-4475; 100 nM): 95.7%
- normalised viability (MDA-MB-231; 10 nM): 108%
- normalised viability (MDA-MB-231; 1000 nM): 124%
- normalised viability (MDA-MB-231; 10000 nM): 86.6%
- normalised viability (MDA-MB-453; 3 nM): 115%
- normalised viability (MDA-MB-453; 30 nM): 95.5%
- normalised viability (MDA-MB-453; 100 nM): 107%
- normalised viability (MDA-MB-436; 10 nM): 110%
- normalised viability (MDA-MB-436; 1000 nM): 73.3%
- normalised viability (MDA-MB-436; 10000 nM): 104%
- normalised viability (Hs578T [10]; 10 nM): 106%
- normalised viability (Hs578T [10]; 1000 nM): 102%
- normalised viability (Hs578T [10]; 10000 nM): 112%
- normalised viability (HDQ-P1; 3 nM): 107%
- normalised viability (HDQ-P1; 30 nM): 117%
- normalised viability (HDQ-P1; 100 nM): 107%
- normalised viability (CAL-51 [11]; 3 nM): 106%
- normalised viability (CAL-51 [11]; 30 nM): 98.3%
- normalised viability (CAL-51 [11]; 100 nM): 105%
- normalised viability (CAL-148 [12]; 3 nM): 96.8%
- normalised viability (CAL-148 [12]; 30 nM): 103%
- normalised viability (CAL-148 [12]; 100 nM): 102%
- normalised viability (CAL-85-1 [13]; 3 nM): 96%
- normalised viability (CAL-85-1 [13]; 30 nM): 90.9%
- normalised viability (CAL-85-1 [13]; 100 nM): 99.1%
- normalised viability (MFM-223 [14]; 10 nM): 92.4%
- normalised viability (MFM-223 [14]; 1000 nM): 83.3%
- normalised viability (MFM-223 [14]; 10000 nM): 97%

Structure (SMILES): COC(=O)C[C@](O)(CCCC(C)(C)O)C(=O)O[C@@H]1C(OC)=C[C@]23CCCN2CCc2cc4c(cc2[C@H]13)OCO4 [Omacetaxine]
- drug sensitivity score (HCC1143): 22.4
- drug sensitivity score (HCC1937): 21.2
- drug sensitivity score (CAL-120 [1]): 19
- drug sensitivity score (BT-474 [2]): 16.7
- drug sensitivity score (MCF-10A): 22.1
- drug sensitivity score (Hs578T [3]): 26
- drug sensitivity score (CAL-51 [4]): 27.1
- drug sensitivity score (CAL-148 [5]): 19.9
- drug sensitivity score (CAL-85-1 [6]): 29.6
- drug sensitivity score (MFM-223 [7]): 22.1
